Legend:
IRAK3-ePL = target: T1, IRAK3-ePL (Homo sapiens, UniProt Q9Y616); assay: IRAK3-ePL overexpressing degradation assay (InCELL Hunter luminescence, dose response); format: cell-based; details: for IRAK3 ePL degradation Ymin: lowest percentage of target protein remaining following compound treatment; for DC50: read-out: IRAK3 ePL degradation EC50
T1 construct: expressed in transfected cells; host or cells: 293T CRBN OE/GSPT1 G575N KI cells, lentiviral transduction, puromycin selected
Experimental: Example B1. IRAK3-ePL Overexpressing Degradation Assay
Stable cell lines were generated by the following protocol. 3×10^5 Lenti-X 293T cells (Clonetech) were plated in 0.8 mL of media in a 12-well plate and incubated overnight at 37° C./5% CO2. Packaging plasmid (0.4 μg, pMD), envelope plasmid (0.4 μg, pSP), and lentiviral transfer IRAK3-ePL plasmid (0.8 μg, TRAK3 sequence NM_007199.3) were mixed in 0.1 mL of Opti-MEM and incubated for 5 min. Simultaneously, 2.4 μL of Lipofectamine 2000 (Invitrogen) was added to 0.1 mL of Opti-MEM (Gibco) and incubated for 5 min. The plasmid DNA and lipofectamine were combined and the mixture was allowed to incubate for 20 min.DNA:Lipofectamine Opti-MEM mixtures were then added to previously plated cells dropwise and the cells were incubated for ~16 h at 37° C./5% CO2. Following incubation, the media was removed and 1.2 mL of fresh media was added per well. Lenti-X 293T cells were incubated for ~30 h at 37° C./5% CO2. […] Following incubation, media was removed from the Lenti-X 293T wells and passed through a […] filter. Part of the viral supernatant was used to transduce cells and the rest was stored at −80° C. Viruses were then added individually (0.5 mL virus) to each well of the 293T^CRBN OE/GSPT1 G575N KI cells, followed by addition of polybrene (10 mg/mL Millipore) to each well at a final concentration of 5.0 μg/mL. Cells were incubated for ~24 h at 37° C./5% CO2. After aspirating media off plates, cells were washed with DPBS, trypsinized and plated in a 10 cm dish in 15 mL of media and […] puromycin. Following incubation of cells for ~72 h at 37° C./5% CO2, media was aspirated off plates, and cells were washed with DPBS and trypsinized. The cells were plated in a 15 cm dish in 40 mL of media with 1.0 μg/mL Puromycin (Gibco) and incubated for ~72 h at 37° C./5% CO2. Following incubation, media was removed and cells were washed with DPBS and trypsinized. The majority of cells were resuspended in Invitrogen freezing media and stored away (~6-8×10^6 cells/vial).
IRAK3-ePL cellular dose response curve degradation assays were performed by the following protocol. Compounds to be tested were dispensed into a white 384-well tissue-culture treated plate using an acoustic liquid handler. Dilutions were prepared based on a 25 μL assay volume in duplicate 10 point 3-fold serial dilutions starting with a 10 μM dose. Negative control wells were included, which only contain 0.2% DMSO to calculate 100% signal. Positive control wells containing 30 μM Ataluren (luciferase inhibitor) were included to calculate the background signal level. All wells were backfilled to a final DMSO concentration of 0.2% to ensure DMSO uniformity across wells. IRAK3-ePL expressing cells (IRAK3-ePL Lenti-X 293T^CRBN/GSPT1 G575N) were washed, trypsinized, counted, and resuspended in fresh DMEM (Gibco) to give a cell concentration of 200,000 cells/mL. 25 μL of cells (5,000 cells/well) were dispensed into the wells of the 384-well plate prespotted with compounds in the previous step and incubated overnight at 37° C./5% CO2. Following incubation, the 384-well plate was taken out of the incubator and left at room temperature for 30 min. InCELL hunter reagent was prepared according to manufacturer's instructions (EA reagent, lysis buffer, and substrate reagent in a 1:1:4 ratio, Cat #96-0002, DiscoverX), which was added to the 384-well plate 25 μL per well. Following the incubation of the plate for 1 h at room temperature, the luminescence signal was read using a ViewLux plate reader. Data was processed and analyzed in ActivityBase software. In short, the average luminescence values of the positive control wells were subtracted from the rest of the wells for background correction, and all luminescence values were normalized to the DMSO control wells. The average value of the DMSO control wells was set to equal 100% of the relative IRAK3-ePL protein levels. […]

IRAK3 = target: T2, IRAK3 (Homo sapiens, UniProt Q9Y616); assay: IRAK endogenous HTRF degradation assay (Total-IRAK3 HTRF kit); format: cell-based; details: overnight incubation, lowest percentage of protein remaining
T2 construct: IRAK Endogenous HTRF Degradation Assay; endogenous in cells
T2 sequence (Q9Y616 1-596): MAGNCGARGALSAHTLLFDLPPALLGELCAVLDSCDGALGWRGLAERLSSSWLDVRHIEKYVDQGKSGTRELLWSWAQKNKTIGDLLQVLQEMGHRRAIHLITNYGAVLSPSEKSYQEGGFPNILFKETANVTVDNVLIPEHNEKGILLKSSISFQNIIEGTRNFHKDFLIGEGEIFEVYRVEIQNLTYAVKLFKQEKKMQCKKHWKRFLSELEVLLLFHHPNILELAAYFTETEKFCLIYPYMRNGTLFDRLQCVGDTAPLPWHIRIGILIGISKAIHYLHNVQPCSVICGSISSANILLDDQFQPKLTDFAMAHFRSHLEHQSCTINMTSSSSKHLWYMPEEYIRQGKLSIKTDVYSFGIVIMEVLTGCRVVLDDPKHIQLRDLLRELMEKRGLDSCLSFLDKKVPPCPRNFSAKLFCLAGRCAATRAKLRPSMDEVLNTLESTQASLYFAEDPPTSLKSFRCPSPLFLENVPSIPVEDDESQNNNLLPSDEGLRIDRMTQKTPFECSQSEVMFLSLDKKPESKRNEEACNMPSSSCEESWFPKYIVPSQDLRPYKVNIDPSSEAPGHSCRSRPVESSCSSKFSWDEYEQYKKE
Experimental: Example B2. IRAK Endogenous HTRF Degradation Assay
Cells (~50 k) were plated in Cisbio 96-well low volume white plates (Cisbio: cat #66PL96005). Compounds were dissolved in DMSO and a 3-fold serial dilution was performed using a TECAN D300E. Cells were incubated with the compound overnight. Total-IRAK3 HTRF kit from Cisbio was used for degradation analysis (Cisbio: 63ADK101PEH). Cryptate and D2 antibodies were diluted in Detection buffer as per manufacturers recommendation. Then 2 μL of each solution was added to 16 μL lysate. Buffer control (lysis buffer detection buffer), Cryptate control (lysis buffer+cryptate antibody+detection buffer), and Negative control (lysis buffer+cryptate antibody+D2 antibody) were made as per manufacturers recommendation. Post incubation with antibodies the HTRF signal was measured using a Perkin Elmer Envision reader and the HTRF signal was calculated using formula: (Emission at 665 nm/Emission at 615 nm)*10,000. All HTRF values were normalized to the average value of DMSO. The average value of the DMSO control wells were set to equal 100% of the relative IRAK3 protein levels. Normalized luminescence values were plotted on a graph as a function of compound concentration. Compound concentration was plotted on the x-axis and the corresponding normalized IRAK3 protein levels on the y-axis. The EC50 value (the half-maximum effective concentration) of a compound for the degradation of the IRAK3 was calculated using a four-parameter logistic model (sigmoidal dose-response model) (FIT=(A+{(B−A)/1+[(C/x)D]})) where C is the inflection point (EC50), D is the […], and A and B are the low and high limits of the fit, respectively). The Ymin was calculated by determining the lowest percentage of target protein remaining following compound treatment. Dmax was calculated from Ymin (% Dmax=100−Ymin).
Using these assays, IC50, Dmax, EC50, and DC50 values of the following compounds were determined. Dmax is defined as the maximum percent degradation achieved and DC50 is the concentration at which 50% degradation is achieved.

| IRAK3 ePL degradation Ymin (IRAK3-ePL) [%] | DC50 (IRAK3-ePL) [nM] | IRAK3 HTRF degradation Ymin (IRAK3) [%] | Structure (SMILES) |
| --- | --- | --- | --- |
| 22 | 0.9 | 11 | Cc1cc(-c2cnc(Nc3cnn(C4CCN(CCN5CCN(c6ccc(C7CCC(=O)NC7=O)c(F)c6)CC5)CC4)c3)c3nccn23)c(F)cc1F (centres unmarked) [Compound 53, 3-(4-(4-(2-(4-(4-((5-(2,4-difluoro-5-methylphenyl)imdazo [1,2-a]pyrazin-8-yl)amino)-1H-pyrazol-1-yl)piperidin-1-yl)ethyl)piperazin-1-yl)-2-fluorophenyl)piper idine-2,6-dione] |
| 24 | 0.51 | 14 | Cc1cc(-c2cnc(Nc3cnn([C@@H]4CCN(CCN5CCN(c6ccc(C7CCC(=O)NC7=O)cc6)CC5)[C@H](C)C4)c3)c3nccn23)c(F)cc1F (stereo partly drawn) [Compound 30, 3-(4-(4-(2-((2R,4R)-4-(4-((5-(2,4-difluoro-5-methylphenyl)imdazo [1,2-a]pyrazin-8-yl)amino)-1H-pyrazol-1-yl)-2-methylpiperidin-1-yl)ethyl)piperazin-1-yl)phenyl) piperidine-2,6-dione] |
| 40 | 96 | 74 | Cc1cc(-c2cnc(N(C)c3cnn(C4CCN(CCN5CCN(c6ccc(C7CCC(=O)NC7=O)cc6)CC5)CC4)c3)c3nccn23)c(F)cc1F (centres unmarked) [Compound 52, 3-(4-(4-(2-(4-(4-((5-(2,4-difluoro-5-methylphenyl)imdazo [1,2-a]pyrazin-8-yl)(methyl)amino)-1H-pyrazol-1-yl)piperidin-1-yl)ethyl)piperazin-1-yl)phenyl) piperidine-2,6-dione] |
| 25 | 4.2 | 8.6 | Cc1cccc(-c2cnc(Nc3cnn([C@H]4CC[C@H](CCN5CCN(c6ccc(C7CCC(=O)NC7=O)cc6)CC5)CC4)c3)c3nccn23)c1 (some centres unmarked) [Compound 64] |
| 24 | 1.1 | 9.8 | Cc1ccc(F)c(-c2cnc(Nc3cnn(C4CCN(CCN5CCN(c6ccc(C7CCC(=O)NC7=O)cc6)CC5)CC4)c3)c3nccn23)c1 (centres unmarked) [Compound 36, 3-(4-(4-(2-(4-(4-((5-(2-fluoro-5-methylphenyl)imdazo [1,2-a]pyrazin-8-yl)amino)-1H-pyrazol-1-yl)piperidin-1-yl)ethyl)piperazin-1-yl)phenyl) piperidine-2,6-dione] |
| 24 | 0.51 | 14 | Cc1cc(-c2cnc(Nc3cnn([C@@H]4CCN(CCN5CCN(c6ccc(C7CCC(=O)NC7=O)cc6)C[C@H]5C)[C@H](C)C4)c3)c3nccn23)c(F)cc1F (stereo partly drawn) [Compound 29, 3-(4-((R)-4-(2-((2R,4R)-4-(4-((5-(2,4-difluoro-5-methylphenyl)imdazo [1,2-a]pyrazin-8-yl)amino)-1H-pyrazol-1-yl)-2-methylpiperidin-1-yl)ethyl)-3-methylpiperazin-1-yl)phenyl) piperidine-2,6-dione] |
| 24 | 1.5 | 8.5 | CN1CCOc2ccc(-c3cnc(Nc4cnn([C@H]5CC[C@H](CCN6CCN(c7ccc(C8CCC(=O)NC8=O)cc7)CC6)CC5)c4)c4nccn34)cc21 (some centres unmarked) [Compound 40] |
| 24 | 5.7 | 8.72 | Cc1cc(-c2cnc(Nc3cnn([C@H]4CC[C@H](CCN5CCN(c6ccc(C7CCC(=O)NC7=O)cc6)C[C@@H]5C)CC4)c3)c3nccn23)c(F)cc1F (stereo partly drawn) [Compound 57, 3-(4-((S)-4-(2-((trans)-4-(4-((5-(2,4-difluoro-5-methylphenyl)imidazo[1,2-a]pyrazin-8-yl)amino)-1H-pyrazol-1-yl)cyclohexyl)ethyl)-3-methylpiperazin-1-yl)phenyl) piperidine-2,6-dione] |
| – | – | 25 | O=C1CCC(N2C(=O)c3ccc(N4CCN(C(=O)CN5CCC(n6cc(Nc7ncc(-c8ccc9c(c8)NC(=O)CO9)n8ccnc78)cn6)CC5)CC4)cc3C2=O)C(=O)N1 (centres unmarked) [Compound 21, 2-(2,6-dioxopiperidin-3-yl)-5-(4-(2-(4-(4-((5-(3-ox0-3,4-dihydro-2H-benzo[b][1,4]oxazin-6-yl)imidazo[1,2-a]pyrazin-8-yl)amino)-1H-pyrazol-1-yl)piperidin-1-yl)acetyl)piperazin-1-yl)isoindoline-1,3-dione] |
| – | – | 17 | Cc1cc(-c2cnc(Nc3cnn(C4CCN(C(=O)CN5CCN(c6ccc(C7CCC(=O)NC7=O)cc6)CC5)CC4)c3)c3nccn23)c(F)cc1F (centres unmarked) [Compound 23, 3-(4-(4-(2-(4-(4-((5-(2,4-difluoro-5-methylphenyl)imidazo[1,2-a]pyrazin-8-yl)amino)-1H-pyrazol-1-yl)piperidin-1-yl)-2-oxoethyl)piperazin-1-yl)phenyl)piperidine-2,6-dione] |

From patent US20260216347A1, “Substituted Imidazo-Based Compounds as Ligand Directed Degraders of IRAK3” (Celgene Corporation, priority 2022, published 2026)
